Like-named read-outs stand apart in the source and are kept apart here.
System: PABPC1 PABC
Assay type: binding, human
Conditions: DMS-BM library, bait PABPC1 PABC, row aa = residue at this position; for DMS-derived PSSM value, position R12 / DMS-derived PSSM value (averaged), position R12 / DMS-derived PSSM value, position R14: R = wild type; for DMS-derived PSSM value (averaged), position E8 / DMS-derived PSSM value, position E10 / DMS-derived PSSM value, position E8: E = wild type; for DMS-derived PSSM value, position T3 / DMS-derived PSSM value, position T1: T = wild type
[1] = prey ATXN2, peptide TLNPNAKEFNPRSFSQ
[2] = prey ATXN2, peptide TLNPNAKEFNPRSFSQ, N = wild type
[3] = prey ATXN2, TLNPNAKEFNPRSF(averaged) over the two overlapping peptides
[4] = prey ATXN2, peptide TLNPNAKEFNPRSFSQ, S = wild type
[5] = prey ATXN2, TLNPNAKEFNPRSF(averaged) over the two overlapping peptides, N = wild type
[6] = prey ATXN2, TLNPNAKEFNPRSF(averaged) over the two overlapping peptides, F = wild type
[7] = prey ATXN2, TLNPNAKEFNPRSF(averaged) over the two overlapping peptides, L = wild type
[8] = prey ATXN2, TLNPNAKEFNPRSF(averaged) over the two overlapping peptides, P = wild type
[9] = prey ATXN2, peptide KSTLNPNAKEFNPRSF
[10] = prey ATXN2, peptide KSTLNPNAKEFNPRSF, F = wild type
[11] = prey ATXN2, peptide KSTLNPNAKEFNPRSF, P = wild type
[12] = prey ATXN2, peptide KSTLNPNAKEFNPRSF, N = wild type
[13] = prey ATXN2, peptide KSTLNPNAKEFNPRSF, K = wild type
[14] = prey ATXN2, peptide KSTLNPNAKEFNPRSF, S = wild type
[15] = prey ATXN2, TLNPNAKEFNPRSF(averaged) over the two overlapping peptides, S = wild type
[16] = prey ATXN2, TLNPNAKEFNPRSF(averaged) over the two overlapping peptides, A = wild type

TLNPNAKEFNPRSFSQ R12M (TLNPNAKEFNPMSFSQ)
DMS-derived PSSM value, position R12 [1]: 0.04074

TLNPNAKEFNPRSFSQ N3I (TLIPNAKEFNPRSFSQ)
DMS-derived PSSM value, position N3 [2]: 0

TLNPNAKEFNPRSFSQ K7A (TLNPNAAEFNPRSFSQ)
DMS-derived PSSM value, position K7 (prey ATXN2, peptide TLNPNAKEFNPRSFSQ, K = wild type): 0.2382

TLNPNAKEFNPRSF(averaged) E8T (TLNPNAKTFNPRSF)
DMS-derived PSSM value (averaged), position E8 [3]: 0.1317

TLNPNAKEFNPRSFSQ S15W (TLNPNAKEFNPRSFWQ)
DMS-derived PSSM value, position S15 [4]: 0.05986

TLNPNAKEFNPRSF(averaged) N10Q (TLNPNAKEFQPRSF)
DMS-derived PSSM value (averaged), position N10 [5]: 0.06161

TLNPNAKEFNPRSF(averaged) N5I (TLNPIAKEFNPRSF)
DMS-derived PSSM value (averaged), position N5 [5]: 0.2839

TLNPNAKEFNPRSF(averaged) R12K (TLNPNAKEFNPKSF)
DMS-derived PSSM value (averaged), position R12 [3]: 0.01002

TLNPNAKEFNPRSF(averaged) F9Q (TLNPNAKEQNPRSF)
DMS-derived PSSM value (averaged), position F9 [6]: 0

TLNPNAKEFNPRSF(averaged) L2Y (TYNPNAKEFNPRSF)
DMS-derived PSSM value (averaged), position L2 [7]: 0.0552

TLNPNAKEFNPRSF(averaged) P11T (TLNPNAKEFNTRSF)
DMS-derived PSSM value (averaged), position P11 [8]: 0.141

TLNPNAKEFNPRSF(averaged) N3G (TLGPNAKEFNPRSF)
DMS-derived PSSM value (averaged), position N3 [5]: 0

TLNPNAKEFNPRSF(averaged) F14Y (TLNPNAKEFNPRSY)
DMS-derived PSSM value (averaged), position F14 [6]: 0.08672

KSTLNPNAKEFNPRSF T3P (KSPLNPNAKEFNPRSF)
DMS-derived PSSM value, position T3 [9]: 0.005473

TLNPNAKEFNPRSFSQ P4R (TLNRNAKEFNPRSFSQ)
DMS-derived PSSM value, position P4 (prey ATXN2, peptide TLNPNAKEFNPRSFSQ, P = wild type): 0

TLNPNAKEFNPRSF(averaged) N5G (TLNPGAKEFNPRSF)
DMS-derived PSSM value (averaged), position N5 [5]: 0.006922

TLNPNAKEFNPRSF(averaged) F9N (TLNPNAKENNPRSF)
DMS-derived PSSM value (averaged), position F9 [6]: 0.04813

KSTLNPNAKEFNPRSF F11T (KSTLNPNAKETNPRSF)
DMS-derived PSSM value, position F11 [10]: 0

KSTLNPNAKEFNPRSF P13Y (KSTLNPNAKEFNYRSF)
DMS-derived PSSM value, position P13 [11]: 0.004042

TLNPNAKEFNPRSFSQ T1Y (YLNPNAKEFNPRSFSQ)
DMS-derived PSSM value, position T1 [1]: 0.3306

KSTLNPNAKEFNPRSF N5M (KSTLMPNAKEFNPRSF)
DMS-derived PSSM value, position N5 [12]: 0

TLNPNAKEFNPRSFSQ N10H (TLNPNAKEFHPRSFSQ)
DMS-derived PSSM value, position N10 [2]: 0.0229

KSTLNPNAKEFNPRSF K9W (KSTLNPNAWEFNPRSF)
DMS-derived PSSM value, position K9 [13]: 0.002107

TLNPNAKEFNPRSF(averaged) L2V (TVNPNAKEFNPRSF)
DMS-derived PSSM value (averaged), position L2 [7]: 0.005447

KSTLNPNAKEFNPRSF S15N (KSTLNPNAKEFNPRNF)
DMS-derived PSSM value, position S15 [14]: 0.1002

KSTLNPNAKEFNPRSF
DMS-derived PSSM value, position A8 (prey ATXN2, peptide KSTLNPNAKEFNPRSF, A = wild type): 0.5804 | DMS-derived PSSM value, position E10 [9]: 0.1617 | DMS-derived PSSM value, position F11 [10]: 0.393 | DMS-derived PSSM value, position F16 [10]: 0.06015 | DMS-derived PSSM value, position K9 [13]: 0.008078 | DMS-derived PSSM value, position L4 (prey ATXN2, peptide KSTLNPNAKEFNPRSF, L = wild type): 0.6837 | DMS-derived PSSM value, position N5 [12]: 0.9124 | DMS-derived PSSM value, position N7 [12]: 0.02963 | DMS-derived PSSM value, position N12 [12]: 0.02408 | DMS-derived PSSM value, position P6 [11]: 0.1132 | DMS-derived PSSM value, position P13 [11]: 0.007578 | DMS-derived PSSM value, position R14 [9]: 0.01898 | DMS-derived PSSM value, position S2 [14]: 0.03631 | DMS-derived PSSM value, position S15 [14]: 0.05273 | DMS-derived PSSM value, position T3 [9]: 0.04565

TLNPNAKEFNPRSFSQ T1M (MLNPNAKEFNPRSFSQ)
DMS-derived PSSM value, position T1 [1]: 0.006287

TLNPNAKEFNPRSFSQ R12N (TLNPNAKEFNPNSFSQ)
DMS-derived PSSM value, position R12 [1]: 0.04731

TLNPNAKEFNPRSFSQ L2D (TDNPNAKEFNPRSFSQ)
DMS-derived PSSM value, position L2 (prey ATXN2, peptide TLNPNAKEFNPRSFSQ, L = wild type): 0

KSTLNPNAKEFNPRSF E10P (KSTLNPNAKPFNPRSF)
DMS-derived PSSM value, position E10 [9]: 0.01939

KSTLNPNAKEFNPRSF N12A (KSTLNPNAKEFAPRSF)
DMS-derived PSSM value, position N12 [12]: 0.1266

KSTLNPNAKEFNPRSF T3V (KSVLNPNAKEFNPRSF)
DMS-derived PSSM value, position T3 [9]: 0.2131

TLNPNAKEFNPRSF(averaged) S13N (TLNPNAKEFNPRNF)
DMS-derived PSSM value (averaged), position S13 [15]: 0.08567

TLNPNAKEFNPRSFSQ F9E (TLNPNAKEENPRSFSQ)
DMS-derived PSSM value, position F9 (prey ATXN2, peptide TLNPNAKEFNPRSFSQ, F = wild type): 0.05407

KSTLNPNAKEFNPRSF F11L (KSTLNPNAKELNPRSF)
DMS-derived PSSM value, position F11 [10]: 0

KSTLNPNAKEFNPRSF P6Y (KSTLNYNAKEFNPRSF)
DMS-derived PSSM value, position P6 [11]: 0

KSTLNPNAKEFNPRSF P6G (KSTLNGNAKEFNPRSF)
DMS-derived PSSM value, position P6 [11]: 0.01358

KSTLNPNAKEFNPRSF E10Q (KSTLNPNAKQFNPRSF)
DMS-derived PSSM value, position E10 [9]: 0

TLNPNAKEFNPRSF(averaged) P4H (TLNHNAKEFNPRSF)
DMS-derived PSSM value (averaged), position P4 [8]: 0.02342

TLNPNAKEFNPRSFSQ E8T (TLNPNAKTFNPRSFSQ)
DMS-derived PSSM value, position E8 [1]: 0.09413

KSTLNPNAKEFNPRSF N5G (KSTLGPNAKEFNPRSF)
DMS-derived PSSM value, position N5 [12]: 0

TLNPNAKEFNPRSF(averaged) P4Q (TLNQNAKEFNPRSF)
DMS-derived PSSM value (averaged), position P4 [8]: 0.01774

TLNPNAKEFNPRSF(averaged) L2K (TKNPNAKEFNPRSF)
DMS-derived PSSM value (averaged), position L2 [7]: 0.0007818

TLNPNAKEFNPRSF(averaged) A6V (TLNPNVKEFNPRSF)
DMS-derived PSSM value (averaged), position A6 [16]: 0.3197

TLNPNAKEFNPRSF(averaged) R12G (TLNPNAKEFNPGSF)
DMS-derived PSSM value (averaged), position R12 [3]: 0.06327

TLNPNAKEFNPRSFSQ S15Q (TLNPNAKEFNPRSFQQ)
DMS-derived PSSM value, position S15 [4]: 0.01622

TLNPNAKEFNPRSF(averaged) A6T (TLNPNTKEFNPRSF)
DMS-derived PSSM value (averaged), position A6 [16]: 0.133

TLNPNAKEFNPRSF(averaged) F9S (TLNPNAKESNPRSF)
DMS-derived PSSM value (averaged), position F9 [6]: 0

TLNPNAKEFNPRSF(averaged) E8F (TLNPNAKFFNPRSF)
DMS-derived PSSM value (averaged), position E8 [3]: 0

TLNPNAKEFNPRSF(averaged) N10T (TLNPNAKEFTPRSF)
DMS-derived PSSM value (averaged), position N10 [5]: 0.03227

TLNPNAKEFNPRSF(averaged) R12P (TLNPNAKEFNPPSF)
DMS-derived PSSM value (averaged), position R12 [3]: 0.006659

KSTLNPNAKEFNPRSF N7R (KSTLNPRAKEFNPRSF)
DMS-derived PSSM value, position N7 [12]: 0.005056

TLNPNAKEFNPRSF(averaged) R12S (TLNPNAKEFNPSSF)
DMS-derived PSSM value (averaged), position R12 [3]: 0.1293

TLNPNAKEFNPRSF(averaged) L2A (TANPNAKEFNPRSF)
DMS-derived PSSM value (averaged), position L2 [7]: 0

TLNPNAKEFNPRSFSQ E8I (TLNPNAKIFNPRSFSQ)
DMS-derived PSSM value, position E8 [1]: 0.01296

KSTLNPNAKEFNPRSF F16I (KSTLNPNAKEFNPRSI)
DMS-derived PSSM value, position F16 [10]: 0.0559

TLNPNAKEFNPRSF(averaged) N10Y (TLNPNAKEFYPRSF)
DMS-derived PSSM value (averaged), position N10 [5]: 0.1006

KSTLNPNAKEFNPRSF F16P (KSTLNPNAKEFNPRSP)
DMS-derived PSSM value, position F16 [10]: 0.0009324

TLNPNAKEFNPRSF(averaged) P4T (TLNTNAKEFNPRSF)
DMS-derived PSSM value (averaged), position P4 [8]: 0.01555

KSTLNPNAKEFNPRSF R14H (KSTLNPNAKEFNPHSF)
DMS-derived PSSM value, position R14 [9]: 0.02913

TLNPNAKEFNPRSF(averaged) S13A (TLNPNAKEFNPRAF)
DMS-derived PSSM value (averaged), position S13 [15]: 0.1254

Reference: publication PMC12102759 (Protein Science : A Publication of the Protein Society, 2025)
